Several values for one entry are separate records, joined by “and”; a condition that tells them apart may be missing. Identical values can stand only once. Counter-ions that a name gives are not always drawn.
Tested on: Rattus norvegicus
Settings: for LC50 / LD50: acute
[1] = reproduction developmental, oral, gavage, Wistar
[2] = repeat dose other, inhalation, Sprague-Dawley
[3] = subchronic, duration: 3 months, inhalation, Sprague-Dawley
[4] = chronic, duration: 16 weeks, oral, diet, Wistar

COC(=O)CC(C)(C)C(Cl)CC(Cl)(Cl)Cl (stereo not given)
LC50 (inhalation, Sprague-Dawley): > 66.6 mg/m3 | LD50 (oral, Sprague-Dawley): > 5000 mg/kg

CC(C)C(=O)OCC(C)(C)C(OC(=O)c1ccccc1C(=O)OCc1ccccc1)C(C)C (stereo not given)
LD50 (oral, gavage, Sprague-Dawley): > 18500 mg/kg

CC(C)CC(C)OP(=S)([S-])OC(C)CC(C)C.CC(C)CC(C)OP(=S)([S-])OC(C)CC(C)C.[Zn+2] (stereo not given)
LD50 (oral, gavage, Sprague-Dawley): ≥ 2000 mg/kg and ≤ 5000 mg/kg

COC(=O)C1C(C=C(Cl)Cl)C1(C)C (stereo not given)
LD50 (oral, gavage, Sprague-Dawley): > 5000 mg/kg | NOAEL (reproduction developmental, duration: 28 days, oral, gavage, Sprague-Dawley): 450 mg/kg-day

Cc1cccc2[nH]c([S-])nc12.Cc1cccc2[nH]c([S-])nc12.[Zn+2]
LD50 (dermal, semiocclusive, Sprague-Dawley): > 2000 mg/kg | LC50 (inhalation, Sprague-Dawley): > 2.03 µg/mL | LD50 (oral): 800 mg/kg

c1ccc(-c2cccc(-c3ccccc3)c2)cc1 [1,1':3',1''-Terphenyl]
LD50 (oral, gavage, Sprague-Dawley): 2400 mg/kg | LOAEL (% diet) (short-term, duration: 14 days, oral, diet, Wistar): 0.2

O=C1OCCO1 [1,3-Dioxolan-2-one]
LD50 (dermal, Wistar): > 2000 mg/kg | LD50 (oral, Sprague-Dawley): > 5000 mg/kg | NOAEL (reproduction developmental, duration: 9 days, oral, gavage, F, Sprague-Dawley): 1500 mg/kg-day and 750 mg/kg-day

C1=C\CC/C=C\CC/1 [1,5-Cyclooctadiene]
LD50 (dermal, occlusive, Crl:CD1): > 3520 mg/kg | LD50 (oral): 2380 mg/kg | NOAEL (short-term, duration: 2 weeks, inhalation, M): 664 mg/m3

C=CCC [1-Butene]
NOAEL (reproduction developmental, duration: 28 days, inhalation, Sprague-Dawley, generation: F0): 18400 mg/m3 | NOAEL (reproduction developmental, inhalation, F, Sprague-Dawley): 18400 mg/m3 | NOAEL (reproduction developmental, inhalation, M, Sprague-Dawley): 18400 mg/m3 | NOAEL (reproduction developmental, inhalation, Sprague-Dawley, generation: F0): 18400 mg/m3 | NOAEL (reproduction developmental, inhalation, Sprague-Dawley, generation: F1): 18400 mg/m3

O=[N+]([O-])c1cccc(Cl)c1 [1-Chloro-3-nitrobenzene]
LD50 (oral, gavage, Sprague-Dawley): 400 mg/kg

CCC(C)(C#N)N=NC(C)(C#N)CC (stereo not given) [2,2'-Azobis(2-methylbutanenitrile)]
LD50 (oral, Sprague-Dawley): 337 mg/kg

Clc1cc(Cl)c(Cl)nc1Cl [2,3,5,6-Tetrachloropyridine]
LD50 (oral): ≥ 1180 mg/kg and ≤ 1410 mg/kg | LD50 (oral, gavage): 1000 mg/kg | NOAEL (chronic, duration: 91 days, oral, diet, Sherman Wistar): 100 mg/kg-day | NOAEL (reproduction developmental, duration: 52 days, oral, gavage, F, Sprague-Dawley): 25 mg/kg-day | NOAEL (reproduction developmental, duration: 52 days, oral, gavage, M, Sprague-Dawley): 150 mg/kg-day | NOAEL (reproduction developmental, duration: 52 days, oral, gavage, Sprague-Dawley): 150 mg/kg-day | NOAEL (reproduction developmental, duration: 52 days, oral, gavage, Sprague-Dawley, generation: F1): 150 mg/kg-day | NOAEL (subchronic, duration: 52 days, oral, gavage, F, Sprague-Dawley): 25 mg/kg-day | NOAEL (subchronic, duration: 52 days, oral, gavage, M, Sprague-Dawley): 150 mg/kg-day

CC(C)(C)c1cc(C(C)(C)C)c(O)c(C(C)(C)C)c1 [2,4,6-Tris(tert-butyl)phenol]
LD50 (oral, Wistar): 1610 mg/kg and 1670 mg/kg | NOAEL (chronic, duration: 24 months, oral, diet, Wistar): 2.34 mg/kg-day

CC=C(C)C [2-Methyl-2-butene]
NOAEL (reproduction developmental, duration: 28 days, inhalation, Sprague-Dawley): 1660 mg/m3 | NOAEL (reproduction developmental, inhalation, Sprague-Dawley): 20100 mg/m3

CC(CC(=O)O)CC(C)(C)C (stereo not given) [3,5,5-Trimethylhexanoic acid]
NOAEL (reproduction developmental, oral, diet, F, Sprague-Dawley): 1200 ppm | NOAEL (reproduction developmental, oral, diet, Sprague-Dawley, generation: F1): 1200 ppm

Cc1ccc(S(=O)(=O)O)cc1 [4-Methylbenzenesulfonic acid]
LD50 (oral, Wistar): 1410 mg/kg | NOAEL (short-term, duration: 28 days, oral, Wistar): > 500 mg/kg-day

C=CCCC#N [4-Pentenenitrile]
LC50 (inhalation, Sprague-Dawley): 8460 mg/m3

CSC(C)(C)/C=N/O [Aldicarb oxime]
LD50 (oral, Wistar): 809 mg/kg | LOAEL [1]: 25 mg/kg-day | NOAEL [1]: 5 mg/kg-day

CC(C)CC(C)OC(=O)/C=C\C(=O)OC(C)CC(C)C (stereo not given) [Bis(1,3-dimethylbutyl) maleate]
LD50 (oral, gavage, Wistar): 7460 mg/kg

CC(=O)C(N=Nc1ccc(-c2ccc(N=NC(C(C)=O)C(=O)Nc3ccccc3)c(Cl)c2)cc1Cl)C(=O)Nc1ccccc1 (stereo not given) [C.I. Pigment Yellow 12]
NOAEL (reproduction developmental, oral, gavage, Wistar, generation: F0): 1000 mg/kg-day | NOAEL (reproduction developmental, oral, gavage, Wistar, generation: F1): 1000 mg/kg-day

CC(=O)C(=NNc1ccc(-c2ccc(NN=C(C(C)=O)C(=O)Nc3ccc(C)cc3C)c(Cl)c2)cc1Cl)C(=O)Nc1ccc(C)cc1C [C.I. Pigment Yellow 13]
NOAEL (chronic, oral, gavage): 500 mg/kg-day

CCCCCCCCCCCCOCCOCCOS(=O)(=O)[O-].[Na+] [Diethylene glycol monolauryl ether sulfate sodium salt]
LD50 (oral, gavage, Sprague-Dawley): > 5000 mg/kg

CC(C)OC(=O)CCCCC(=O)OC(C)C [Diisopropyl adipate]
LD50 (oral): > 15000 mg/kg

CCCCCCCCCCCCCCN(C)C [Dimethyl(tetradecyl)amine]
LD50 (oral, gavage): 2120 mg/kg | LD50 (oral, gavage, Wistar): 1320 mg/kg

c1ccc(Oc2ccccc2)cc1 [Diphenyl oxide]
LD50 (oral, gavage, Sprague-Dawley): 2450 mg/kg | NOAEL (developmental, duration: 10 days, oral, gavage, Sprague-Dawley): ≥ 500 mg/kg-day | NOAEL (reproduction developmental, duration: 10 days, oral, gavage, F, Sprague-Dawley): ≥ 50 mg/kg-day | NOAEL (subchronic, duration: 13 weeks, oral, diet, Sprague-Dawley): > 480 mg/kg-day

CCCCCCCCCCCOC(=O)c1ccccc1C(=O)OCCCCCCCCCCC [Diundecyl phthalate]
NOAEL (short-term, duration: 21 days, oral, diet, Fischer 344): 282 mg/kg-day

O=C(OCCOCCOCCOC(=O)c1ccccc1)c1ccccc1 [Ethylenebis(oxyethylene) dibenzoate]
LD50 (dermal, Sprague-Dawley): > 2000 mg/kg | LD50 (oral, Sprague-Dawley): 4190 mg/kg and 3540 mg/kg and 4840 mg/kg | NOAEL (developmental, duration: 14 days, oral, gavage, Sprague-Dawley): 1000 mg/kg-day | NOAEL (subchronic, duration: 13 weeks, oral, diet, F): 1000 mg/kg-day | NOAEL (subchronic, duration: 13 weeks, oral, diet, M): 1000 mg/kg-day

Fc1ccccc1 [Fluorobenzene]
LC50 (inhalation): 26900 mg/m3 | NOAEL (short-term, duration: 28 days, inhalation, F, Sprague-Dawley): 0.37 mg/L | NOAEL (short-term, duration: 28 days, inhalation, M, Sprague-Dawley): 0.37 mg/L

CCCCCCC(C)OC(=O)CCCCC(=O)OC(C)CCCCCC (stereo not given) [Hexanedioic acid, bis(1-methylheptyl) ester]
LD50 (oral, gavage): > 64000 mg/kg

CCCCCCCCCCCCCCCCCC(=O)[O-].[Li+] [Lithium octadecanoate]
LC50 (oral): ≥ 5000 mg/kg and ≤ 15000 mg/kg

CS [Methanethiol]
LC50 (inhalation, Sprague-Dawley): 1330 mg/m3 and ≥ 1260 mg/m3 and ≤ 1390 mg/m3 | LC50 (inhalation, WBS/W): 3310 mg/m3 and ≥ 2810 mg/m3 and ≤ 3900 mg/m3 | LOAEL [2]: 112 mg/m3 | NOAEL [2]: 33.4 mg/m3 | LOAEL [3]: 112 mg/m3 | NOAEL [3]: 33.4 mg/m3

CCCCCCCCCCCCCCCCN(C)C [N,N-Dimethyl-1-hexadecanamine]
LD50 (oral, gavage): 1020 mg/kg | LD50 (oral, gavage, Sprague-Dawley): > 2000 mg/kg

O=P(O)(O)c1ccccc1 [Phenylphosphonic acid]
LD50 (dermal, occlusive, Crl:CD(SD) BR): > 2000 mg/kg

CCCCOP(=O)(O)OCCCC [Phosphoric acid, dibutyl ester]
NOAEL (subchronic, oral, gavage, Sprague-Dawley): 30 mg/kg-day

CCCCCCCC/C=C\CCCCCCCC(=O)OC[C@@H](O)[C@H]1OC[C@H](O)[C@H]1O [Sorbitan, mono-(9Z)-9-octadecenoate]
LD50 (oral, gavage): > 39800 mg/kg | LD50 (oral, gavage, Wistar): > 39800 mg/kg | LOAEL (% diet) [4]: 2.5 | NOAEL [4]: 1700 mg/kg-day | NOAEL (chronic, oral, diet): 1450 mg/kg-day | NOAEL (% diet) (chronic, oral, diet): 2.5

c1ccc(-c2cccc(-c3ccccc3)c2)cc1 [Terphenyl]
LC50 (oral, gavage, Sprague-Dawley): > 5000 mg/kg

CC(O)CN(CC(C)O)CC(C)O (stereo not given) [Triisopropanolamine]
LD50 (oral, gavage, Wistar): 6500 mg/kg | NOAEL (chronic, duration: 102 weeks, oral, diet, Wistar): > 1220 mg/kg-day | NOAEL (developmental, duration: 6 days, oral, gavage, Wistar): ≥ 1000 mg/kg-day | NOAEL (reproduction developmental, duration: 6 days, oral, gavage, F, Wistar): 400 mg/kg-day

CCCCCCCCCCCC#N [n-Undecyl cyanide]
LD50 (oral): > 3400 mg/kg

From EPA's ToxValDB 9.5
